Measured values as given in a melting point compilation (Tetko et al.; mined from patent text by program, amines drawn as free bases though some values may be those of a salt).

Compound | melting point
CCCCCCCCCCNC(=O)C1=C(C(=O)Nc2cc(OC3CCCC3)c(Cl)cc2F)CCCC1 | 128 to 130 °C
O=c1[nH]c2c(Cl)cccc2c(=O)o1 | 225 to 230 °C
Cc1cc(C)cc(SN2C(=O)CCC2=O)c1 | 131 to 134 °C
CCC(=O)N[C@@H](C)C(=O)N1CCC[C@H]1C(=O)NC | 163 to 165 °C
CCCn1c(=O)n2c(=O)[nH]nc2c2[nH]cnc21 | > 290 °C
O=S(=O)(Cc1ccc(Cc2ccc(NC3=NCCN3)cc2)cc1)NCc1ccccc1 | 115 to 118 °C
CS(=O)c1ccc(-c2coc3ccc(-c4nnc(SCc5cccc(F)c5)o4)cc23)cc1 (configuration not stated) | 135 to 136 °C
CN(C)C1(c2cccc(F)c2)CCC(=O)CC1 | 83 to 88 °C
CC(=O)Nc1cc(Cl)ccc1OCC#N | 146 to 149 °C
CC1CC2C3CCC4=CC(=O)C=CC4(C)C3=CCC2(C)C1(O)C#N (configuration not stated) | 241 to 248 °C
CN(C(=O)CCSC(c1ccccc1)(c1ccccc1)c1ccccc1)c1cn(-c2cccnc2)nc1Cl | 62 to 64 °C
CSc1snc(C(F)(F)F)c1C(=O)O | 260 to 262 °C
Brc1cccc2[nH]c(-c3ccccc3)c(CCN3CCCCC3)c12 | > 230 °C
O=P(c1ccccc1)(c1ccccc1)C(O)c1c(Cl)cccc1Cl (configuration not stated) | 205 to 209 °C
O=C(CS(=O)(=O)C(c1ccc(Cl)cc1)c1ccc(Cl)cc1)c1cccs1 | 150 to 151 °C
CC(C)C(=O)N[C@@H](CSC(=O)C(C)C)C(=O)NCCSC(=O)C(C)(C)C | 105 to 107 °C
O=C(O)C1=Cc2cc(C(F)(F)F)ccc2NC1C(F)(F)F (configuration not stated) | 150 to 156 °C
N#Cc1cc(CCNc2ncnc3c(F)ccc(F)c23)ccc1Oc1cc(C(F)(F)F)ccn1 | 157 to 159 °C
O=C1CN(c2ccc(Cc3ccccc3)cc2)C(=S)N1c1ccc([N+](=O)[O-])cc1 | 209 °C

Compound | melting point
Fc1ccc(-c2ccc(CCNc3ncnc4nccnc34)cc2)cn1 | 184 to 186 °C
CCCC1=C(C(=O)OCC)C(c2cccc3nonc23)c2c[nH]nc2N1 (configuration not stated) | 207 °C
C=C(CN(C)C)C(O)c1ncc2c(c1O)COC2(C)c1ccccc1 (configuration not stated) | 178 to 179 °C
OC1(c2ccc(Cl)cc2)CN(C(c2ccccc2)c2ccccc2)C1 | 108 °C
O=C1OCCN1C(=O)c1ccccc1 | 166 to 170 °C
O=c1[nH]c(-c2ccc(CCCl)cc2)cs1 | 226 to 229 °C
CC(C)OCCNc1ccccc1C(=O)C(=O)OC(=O)C(=O)c1ccccc1NCCOC(C)C | 107 to 108 °C
Cc1nn(C(CCCc2ccccc2)C(C)O)c2ncn(Cc3ccc(Cl)c(Cl)c3)c(=O)c12 (configuration not stated) | 160 °C
COc1cc(C=C[N+](=O)[O-])cc(OC)c1OC | 116 to 118 °C
CCOc1nc(NC(C)C)c2cscc2n1 | 155 to 156 °C
Cc1cc(Nc2ccn(-c3ccccc3)n2)cc(C)c1O | 154 to 155 °C
CC(C)(C)C(O)(CC#CBr)C(Oc1ccc(Cl)cc1)n1cncn1 (configuration not stated) | 156 to 160 °C
NC(C=Cc1cccc(Cl)c1)=NO | 195 to 197 °C
CCCCCCCCCCCCCCCCCCNC(=O)OCC(CN(C(C)=O)S(=O)(=O)CCCI)NC(C)=O (configuration not stated) | 118 to 119 °C
Oc1ccc(O)c2c1CC=CC2 | 208 to 211 °C
CCC1C(=O)NC1C=COC(C)=O (configuration not stated) | 102 °C
OC1Cc2c(Cl)cccc2Sc2ccc(C(F)(F)F)cc21 (configuration not stated) | 130 to 132 °C
CCc1ncc(CO)c(NCc2ccc(-c3ccccc3-c3nnnn3C(c3ccccc3)(c3ccccc3)c3ccccc3)cc2)n1 | 118 to 120 °C
O=C(CCCCc1ccccc1)N[C@H](Cc1ccc(C(F)(F)F)cc1)[C@@H](O)c1ccc(F)cc1 (racemic) | 152 to 153 °C

Compound | melting point
OC1(c2ccc(C(F)(F)F)cc2)CCN(CCCc2noc3cc(F)ccc23)CC1 | 150 to 152 °C
CC(=O)c1c[nH]c2cc(O)ccc12 | 135 to 140 °C
COc1ccc(O)c(CN2CCN(C(=S)SC)CC2)c1 | 112 °C
CC(C)(C)NC(=O)c1ccc(C(F)(F)F)cc1 | 146 to 148 °C
CC=CCn1c(N(C(C)=O)c2cc(C)cc(C)c2)c(C(C)C)c(=O)[nH]c1=O | 103 to 105 °C
CCOC(=O)/C=C/c1cn(Cc2ccc(OCc3ccccc3)cc2)nc1-c1ccc(F)cc1 | 113 to 114 °C
CCCCCC(=O)N(NC(=O)c1ccccc1)C(C)(C)C | 117 to 118 °C
CN1Cc2cc(C(c3ccccc3)n3ccnc3)ccc2NC1=O (configuration not stated) | 174 °C
Cc1[nH]c2ccccc2c1C1=C(c2c(C)[nH]c3ccccc23)C(=O)N(C)C1=O | > 290 °C
CCOc1cc(C=C2SC(=S)N(N(C)C)C2=O)ccc1O | 194 to 198 °C
CN(C)C=Nc1nc(CN2CCN(C(c3ccccc3)c3ccccc3)CC2)cs1 | 148 to 150 °C
Cc1nnc(-c2ccc3occ(-c4cc(C(F)(F)F)ccc4Cl)c3c2)o1 | 188 to 189 °C
COc1ccccc1C1C(C#N)=C(c2ccccc2)Nc2n[nH]cc21 (configuration not stated) | 206 °C
CCOC(=O)Cc1cnc(NS(C)(=O)=O)s1 | 153 to 155 °C
Nc1cccc2nc(=O)cccc12 | 175 to 178 °C
CC(C)CCNC(=NC#N)Nc1cccnc1 | 136 °C
CCOC(=O)CNC(=O)C(=O)NCC(OC)OC | 63 to 65 °C
CCOc1nc(F)cc2nc(SSc3nc4cc(F)nc(OCC)n4n3)nn12 | 215 to 216 °C
CO[C@@H](Cc1ccc(OCCc2nc(-c3ccc(-c4ccccc4)cc3)oc2C)c2ccccc12)C(=O)O | 156 to 159 °C

Continued, values first:

melting point | Compound
168 to 170 °C | COc1cc(C(=O)O)ccc1Cc1cn(C(C)C)c2ccc(CCCC(=O)N(C)C)cc12
73 to 75.5 °C | CCc1nnc(-c2ccc(OC)cc2)c(-c2ccc(OC)cc2)n1
107 to 112 °C | COCC(C)Oc1cc(Oc2ccc(S(C)(=O)=O)cc2)cc2cc(C3=NCC(CC(N)=O)S3)[nH]c12 (configuration not stated)
100 to 105 °C | CCc1nc(C)c(CCC(=O)N(CC)CC)c(=O)n1Cc1ccc(-c2ccccc2-c2nnn[nH]2)cc1
81 to 84 °C | Cc1nc(NCCc2ccccc2)c2c(n1)N(c1ccccc1)C(=O)C2
129 °C | COc1ccc(NCCCOc2ccc3cc(OCCCNc4ccc(OC)cc4)ccc3c2)cc1
160 to 162 °C | O=C(CCC(=O)N1CCC(c2ccc(Cl)cc2)CC1)c1ccc2c(c1)CCN(C1CCCC1)CC2
216 to 218 °C | CCNc1nc(-c2ccc(NC(=O)NCc3cccnc3)cc2)ccc1C(=O)O
135 °C | COC(=O)CN1CC([N+](=O)[O-])=C(Cc2ccc(C(C)(C)C)cc2)C=C1C
136 °C | O=C(O)c1cc2cc(Cl)ccc2nc1NC(Cc1ccc(Oc2ccc3ccccc3n2)cc1)C(=O)O (configuration not stated)
167 to 169 °C | NS(=O)(=O)c1cc(C(=O)O)cc(NCc2ccco2)c1-c1ccccc1
260 to 261 °C | O=C(O)c1ccc(-c2cc(=O)n(-c3ccccc3)s2)cc1
213 to 216 °C | CC1(C)CCc2c(ccc3c2C(=O)C(Br)=C(O)C3=O)O1
276 °C | COc1ccccc1-c1[nH]nc2c1C(=O)c1c(NC(C)=O)cccc1-2
138 to 139 °C | CCOC(=O)Cn1c(=S)c2ccccc2n(Cc2ccc(Cl)cc2Cl)c1=O
160 to 162 °C | NS(=O)(=O)c1ccc(/C(=C(\CCO)C(=O)O)c2ccc(F)cc2)cc1
176 to 178 °C | O=C(CCC(=O)Oc1ccc([N+](=O)[O-])cc1)Oc1ccc([N+](=O)[O-])cc1
109 to 111 °C | Cc1ccc2c3c(c(=O)oc2c1)CN(Cc1ccccc1)CC3
102 to 104 °C | COc1ccc2c3c(cnc2c1)CCCC3O[Si](C)(C)C(C)(C)C (configuration not stated)
186 to 187 °C | N#CCCNC(=O)c1cccc(-c2ccc3ccn(Cc4ccc(Cl)cc4Cl)c3n2)c1

melting point | Compound
176 °C | O=C(c1cc(-c2cccnc2)c(N2CCOCC2)s1)c1ccc(Cl)cc1Cl
156 to 158 °C | CONC(=O)Nc1ccc(-c2nc3n(Cc4c(F)cccc4F)cc(C(=O)OC(C)C)c(=O)n3c2CN(C)Cc2ccccc2)cc1
105 to 107 °C | CCCC(=O)NC[C@@H]1CN(c2nc3c(cc2F)c(=O)c(C(=O)OCC)cn3C2CC2)C[C@H]1F (relative stereo)
158 °C | CC1(C)Oc2ccc([N+](=O)[O-])cc2C(n2ccccc2=O)C1(O)CNC(=O)C(F)(F)F (configuration not stated)
307 to 309 °C | COc1ccc(-c2nnc3c4ccccc4c(O)nn23)cc1
102 to 125 °C | CC(C)N1CCOC(CN2C(=O)C3(COc4cc5c(cc43)OCCO5)c3ccccc32)C1 (configuration not stated)
222 to 235 °C | CCNC(=O)Nc1c(C(=O)c2ccccc2)[nH]c2cc(Cl)ccc12
111 to 115 °C | CCOC(=O)c1ccc(C=CCN2CCc3nc(N)sc3CC2)cc1
146 °C | COC(=O)c1ccc2cc(C(=O)c3ccc4c(c3)C3(C)C5(C)CCC(C5)C3(C)O4)ccc2c1 (configuration not stated)
> 200 °C | CCOC(=O)c1c(CCc2ccc(OC)cc2)nc2c(c1-c1ccc(C(=O)NCc3ccccn3)cc1)C(=O)N1CCC[C@H]1C2
150 to 151 °C | Cc1c(O)ccc2c1OCC(c1ccc(N)cc1)C2 (configuration not stated)
262 to 266 °C | O=C(c1cc(-c2ccccc2)c(=O)n2c1-c1ccccc1C2)N1CCOCC1
142 to 143 °C | CC(=O)OC1OCCC[C@@H]1NC(=O)[C@H](CC(C)C)NC(=O)OCc1ccccc1 (some centres not stated)
138 to 140 °C | CCn1cc(Nc2nc(-c3cccc(N4Cc5cc(C(C)(C)C)ccc5C4=O)c3CO)cn(C)c2=O)cn1
120 °C | O=C(O)[C@H](Cc1ccc([N+](=O)[O-])cc1)NC1=CC(=O)C12CCCCC2
197 °C | COc1c(C2CCN(CCCCNC(=O)c3ccc(-c4ccc(Cl)cc4)cc3)CC2)ccc2ccccc12
138 °C | CC(C)(Oc1ccc(CC(=O)Nc2cc(Cl)cc(Cl)c2)cc1)C(=O)O
238 to 239 °C | Cn1c2c(c3ccccc31)Cc1c(CO)c(CO)c(-c3ccc(Cl)cc3)n1C2
150 °C | CC(C)(C)c1cc(C(O)C#Cc2ccc(C(=O)O)cc2)ccc1N1CCCC1 (configuration not stated)
135 to 136 °C | CCc1nc(OC)c(NC(=O)N2CCN(c3cc(C)cc(C)c3)CC2)cc1C
